From ChEMBL document CHEMBL4251578, “Design, synthesis and biological evaluation of novel 2-aminobenzamides containing dithiocarbamate moiety as histone deacetylase inhibitors and potent antitumor agents” (Eur J Med Chem, 2018)

Key:
[1] = test system: SMMC-7721; test: Antiproliferative activity against human SMMC7721 cells after 72 hrs by CCK-8 assay; format: functional, cell-based; settings: for IC50: SMMC-7721, 72 h
[2] = test system: SMMC-7721; test: Cell cycle arrest in human SMMC7721 cells assessed as accumulation of cells at G2/M phase at 0.125 umol/L after 72 hrs by propidium iodide staining-based flow cytometric analysis (reference value: 14.14%); format: functional
[3] = test system: SMMC-7721; test: Induction of apoptosis in human SMMC7721 cells assessed as viable cells at 0.125 umol/L after 72 hrs by Alexa Fluor 488 Annexin/propidium iodide staining-based flow cytometric analysis (reference value: 97.14%); format: functional; settings: SMMC-7721, 72 h, read-out: Activity
[4] = test system: HCT-116; test: Antiproliferative activity against human HCT116 cells after 72 hrs by CCK-8 assay; format: functional, cell-based; settings: for IC50: HCT-116, 72 h
[5] = test system: MGC-803; test: Antiproliferative activity against human MGC803 cells at 2 uM after 72 hrs by CCK-8 assay relative to control; format: functional; settings: MGC-803, 72 h
[6] = test system: SMMC-7721; test: Cell cycle arrest in human SMMC7721 cells assessed as accumulation of cells at G0/G1 phase at 1 umol/L after 72 hrs by propidium iodide staining-based flow cytometric analysis (reference value: 80.65%); format: functional
[7] = test system: NCI-H1299; test: Antiproliferative activity against human NCI-H1299 cells after 72 hrs by CCK-8 assay; format: functional, cell-based; settings: for IC50: NCI-H1299, 72 h
[8] = test system: SMMC-7721; test: Induction of apoptosis in human SMMC7721 cells assessed as late apoptotic cells at 1 umol/L after 72 hrs by Alexa Fluor 488 Annexin/propidium iodide staining-based flow cytometric analysis (reference value: 0.29%); format: functional
[9] = test system: SMMC-7721; test: Induction of apoptosis in human SMMC7721 cells assessed as early apoptotic cells at 4 umol/L after 72 hrs by Alexa Fluor 488 Annexin/propidium iodide staining-based flow cytometric analysis (reference value: 0.09%); format: functional
[10] = test system: HeLa; test: Antiproliferative activity against human HeLa cells after 72 hrs by CCK-8 assay; format: functional, cell-based
[11] = test system: SMMC-7721; test: Induction of apoptosis in human SMMC7721 cells assessed as necrotic cells at 4 umol/L after 72 hrs by Alexa Fluor 488 Annexin/propidium iodide staining-based flow cytometric analysis (reference value: 2.48%); format: functional
[12] = test system: SMMC-7721; test: Cell cycle arrest in human SMMC7721 cells assessed as accumulation of cells at S phase at 0.125 umol/L after 72 hrs by propidium iodide staining-based flow cytometric analysis (reference value: 5.21%); format: functional
[13] = test system: SMMC-7721; test: Induction of apoptosis in human SMMC7721 cells assessed as viable cells at 1 umol/L after 72 hrs by Alexa Fluor 488 Annexin/propidium iodide staining-based flow cytometric analysis (reference value: 97.14%); format: functional; settings: SMMC-7721, 72 h, read-out: Activity
[14] = test system: SMMC-7721; test: Induction of apoptosis in human SMMC7721 cells assessed as late apoptotic cells at 0.125 umol/L after 72 hrs by Alexa Fluor 488 Annexin/propidium iodide staining-based flow cytometric analysis (reference value: 0.29%); format: functional
[15] = test system: SMMC-7721; test: Cell cycle arrest in human SMMC7721 cells assessed as accumulation of cells at G0/G1 phase at 0.125 umol/L after 72 hrs by propidium iodide staining-based flow cytometric analysis (reference value: 80.65%); format: functional
[16] = test system: A-375; test: Antiproliferative activity against human A375 cells at 2 uM after 72 hrs by CCK-8 assay relative to control; format: functional; settings: A-375, 72 h
[17] = test system: SMMC-7721; test: Cell cycle arrest in human SMMC7721 cells assessed as accumulation of cells at G2/M phase at 4 umol/L after 72 hrs by propidium iodide staining-based flow cytometric analysis (reference value: 14.14%); format: functional
[18] = test system: SMMC-7721; test: Cell cycle arrest in human SMMC7721 cells assessed as accumulation of cells at G2/M phase at 1 umol/L after 72 hrs by propidium iodide staining-based flow cytometric analysis (reference value: 14.14%); format: functional
[19] = test system: SMMC-7721; test: Induction of apoptosis in human SMMC7721 cells assessed as early apoptotic cells at 1 umol/L after 72 hrs by Alexa Fluor 488 Annexin/propidium iodide staining-based flow cytometric analysis (reference value: 0.09%); format: functional
[20] = biological target: T1, Protein deacetylase HDAC6 (Homo sapiens, UniProt Q9UBN7); test: Inhibition of human recombinant HDAC6 using Fluor de Lys-Green as substrate preincubated for 5 mins followed by substrate addition and measured after 1 hr by fluorescence assay
T1 sequence (Q9UBN7 whole entry): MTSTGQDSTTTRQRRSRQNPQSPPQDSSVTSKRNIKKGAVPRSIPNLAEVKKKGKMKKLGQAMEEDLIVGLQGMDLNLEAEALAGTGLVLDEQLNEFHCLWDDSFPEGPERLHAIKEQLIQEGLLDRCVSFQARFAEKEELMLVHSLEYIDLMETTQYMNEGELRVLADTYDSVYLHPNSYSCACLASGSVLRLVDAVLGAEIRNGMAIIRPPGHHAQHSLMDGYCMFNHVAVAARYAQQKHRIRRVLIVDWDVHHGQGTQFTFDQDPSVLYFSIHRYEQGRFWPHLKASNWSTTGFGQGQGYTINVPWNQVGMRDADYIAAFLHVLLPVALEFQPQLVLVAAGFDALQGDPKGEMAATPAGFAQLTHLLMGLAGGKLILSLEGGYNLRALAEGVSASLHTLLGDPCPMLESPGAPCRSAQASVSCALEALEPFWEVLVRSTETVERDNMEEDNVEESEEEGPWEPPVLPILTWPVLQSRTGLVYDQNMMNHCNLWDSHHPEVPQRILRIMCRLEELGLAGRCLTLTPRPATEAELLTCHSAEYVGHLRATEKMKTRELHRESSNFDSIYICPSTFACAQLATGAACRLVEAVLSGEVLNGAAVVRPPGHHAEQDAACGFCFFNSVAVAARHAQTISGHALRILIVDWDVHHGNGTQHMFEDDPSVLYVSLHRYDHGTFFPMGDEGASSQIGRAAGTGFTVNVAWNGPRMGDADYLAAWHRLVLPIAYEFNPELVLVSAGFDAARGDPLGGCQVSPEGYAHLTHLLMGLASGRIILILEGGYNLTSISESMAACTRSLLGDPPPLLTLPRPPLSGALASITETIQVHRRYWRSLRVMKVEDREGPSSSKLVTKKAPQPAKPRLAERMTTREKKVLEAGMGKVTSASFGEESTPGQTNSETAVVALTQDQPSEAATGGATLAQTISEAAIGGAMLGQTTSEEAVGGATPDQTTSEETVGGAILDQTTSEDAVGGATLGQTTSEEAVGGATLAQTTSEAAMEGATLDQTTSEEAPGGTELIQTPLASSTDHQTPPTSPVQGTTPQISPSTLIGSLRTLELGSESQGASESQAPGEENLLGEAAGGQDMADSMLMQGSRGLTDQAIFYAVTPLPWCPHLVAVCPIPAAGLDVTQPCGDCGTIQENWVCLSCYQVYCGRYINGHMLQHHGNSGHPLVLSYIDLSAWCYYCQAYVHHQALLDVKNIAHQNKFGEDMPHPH

[21] = test system: HeLa; test: Antiproliferative activity against human HeLa cells at 8 uM after 72 hrs by CCK-8 assay relative to control; format: functional

In the case of `Nc1ccccc1NC(=O)c1ccc(CSC(=S)N2CCN(c3ccncc3)CC2)cc1`, the Activity [1] is reported as “Dose-dependent effect”, the IC50 [1] is reported as 1340 nM and the Activity [2] is reported as 12.01%. The viability at 0.125 µM [3] was 72.5%, the Activity [4] was “Dose-dependent effect” and the IC50 [4] was 540 nM. For the same compound, the inhibition at 2 µM [5] was 64.8%, the Activity [6] was 79.27% and the Activity [7] was “Dose-dependent effect”. For the same compound, the IC50 [7] was 2490 nM, the Activity [8] was 11.06% and the Activity [9] was 19.79%. The Activity [10] was “Dose-dependent effect”, the IC50 [10] was 790 nM and the Activity [11] was 3.17%. The Activity [12] was 7.28%, the viability at 1 µM [13] was 66.7% and the Activity [14] was 12.55%. For the same compound, the Activity [15] was “Dose-dependent effect”, the Activity ([15]; record 2) was 80.71% and the inhibition at 2 µM [16] was 85.7%. It also gave an Activity [17] of 12.05%, an Activity [18] of 13.68% and an Activity [19] of 17.23%. For the same compound, the IC50 [20] was > 40 µM and the inhibition at 8 µM [21] was 77.4%.
Compound `CCN(Cc1ccncc1)C(=S)SCc1ccc(C(=O)Nc2ccccc2N)cc1` has an IC50 [1] of 1210 nM, an Activity [2] of 11.92% and a viability at 0.125 µM [3] of 73.1%. The IC50 [4] was 750 nM, the inhibition at 2 µM [5] was 71.6% and the Activity [6] was 71.44%. It also gave an IC50 [7] of 750 nM, an Activity [8] of 14.06% and an Activity [9] of 23.81%. For the same compound, the IC50 [10] was 1040 nM, the Activity [11] was 1.27% and the Activity [12] was 6.81%. For the same compound, the viability at 1 µM [13] was 54.7%, the Activity [14] was 11.22% and the Activity [15] was “Dose-dependent effect”. For the same compound, the Activity ([15]; record 2) was 81.27%, the inhibition at 2 µM [16] was 67.2% and the Activity [17] was 48.94%. For the same compound, the Activity [18] was 21.11%, the Activity [19] was 18.06% and the IC50 [20] was > 40 µM. For the same compound, the inhibition at 8 µM [21] was 77.7%.
For `Nc1ccccc1NC(=O)c1ccc(CSC(=S)N2CCc3ccccc3C2)cc1`, the IC50 [1] was 1200 nM, the Activity [2] was 15.89% and the viability at 0.125 µM [3] was 71.2%. It also gave an IC50 [4] of 1560 nM, an inhibition at 2 µM [5] of 80.9% and an Activity [6] of 67.59%. It also gave an IC50 [7] of 980 nM, an Activity [8] of 12.44% and an Activity [9] of 25.36%. For the same compound, the IC50 [10] was 1460 nM, the Activity [11] was 1.94% and the Activity [12] was 5.7%. The viability at 1 µM [13] was 57.3%, the Activity [14] was 10.62% and the Activity [15] was “Dose-dependent effect”. It also gave an Activity ([15]; record 2) of 78.41%, an inhibition at 2 µM [16] of 55.5% and an Activity [17] of 28.31%. For the same compound, the Activity [18] was 23.16%, the Activity [19] was 27.39% and the IC50 [20] was > 40 µM. The inhibition at 8 µM [21] was 76.3%.
